Patent US20170106101A1, “METHODS INVOLVING MACROPHAGE TUMOR CELL FUSION HYBRIDS” (OREGON HEALTH & SCIENCE UNIVERSITY, priority 2015, published 2017)

Tests used:
Type in all cases: cell-based, mouse
[1] = test system: MC38-derived fusion hybrids; assay: Transwell chemotaxis assay towards ligand; conditions: ligand 25 ng/ml
Method: (§1) Chemotaxis assay. Chemotaxis assays were performed using IncuCyte™ Chemotaxis Cell Migration Assay (Essen) with at least three technical replicates of triplicate samples. Briefly, 1000 cancer cells were plated in the top wells in DMEM+0.2% FBS after incubation in serum-free media for 20 h. Csf1 or Sdf1 ligand (25 ng/mL) was added to the bottom well and cells were incubated at 37° C. for at least 36 hours with live-imaging. The neutralizing antibodies to the Csf1R (eBioscience), Cxcr4 (Biolegend) and isotype control antibody were added to the top and bottom well (2.5 ng/μL). Migration was quantified by measuring phase contrast area of the top and bottom wells for each timepoint using IncuCyte ZOOM® software. Triplicates of each condition were performed, and the means and standard deviations were calculated. p<0.02 for hybrids treated with Csf1 or Sdf1 relative to hybrids without Csf1 or Sdf1 by unpaired t-test. Two independent hybrid isolates were analyzed. Technical octupulicates (MC38) or sextuplicates (B16F10) with biologic quadruplicates or triplicates were analyzed. For inhibitor studies technical duplicates with biologic triplicates were analyzed.

[2] = test system: unfused MC38 cancer cells; assay: Transwell chemotaxis assay towards ligand; conditions: ligand 25 ng/ml
Method: as §1

[3] = test system: MC38 cells; assay: Growth responsiveness to cytokines and soluble factors (MTS, confluence, viability); conditions: increasing concentrations of cytokine
Method: (§2) In vitro-derived hybrid proliferation. For phenotypic profiling growth responsiveness to cytokines and soluble factors, 95 different cytokines or soluble signaling molecules were distributed at high, medium and low concentrations in 384 well plates, in 25 μl of RPMI (Life Technologies, NY) supplemented with 1% FBS; and 25 μl of a 1.2×10^4 cells/ml suspension of hybrid or MC-38 cells in DMEM+4% FBS was added to each well. 99 wells of each plate were left cytokine-free and no cells were added to two of these wells, which served to provide measurements of background signal. Plates were cultured in a humidified incubator for 72 hours, after which 5 ul of MTS reagent was added to each well. Two hours later, absorbance at 490 nm was read with a 384-well plate reader. For each plate, absorbance values for each cytokine-treated well were normalized to the mean absorbance of the cytokine-free wells on that plate, and expressed in terms of standard deviations from the cytokine-free mean. Three independent hybrid isolates and three MC38 replicates were analyzed. […] In these experiments, 2.5×10^4 hybrid or MC38 cells were plated in the presence of three different concentrations for each soluble factor, or in media alone (DMEM+2.5% FBS), in triplicate for each condition. Plates were imaged every two hours for 90 hours, and then cell viability was assessed.

[4] = test system: MC38-derived hybrid cells; assay: as above; conditions: increasing concentrations of cytokine; MC38-derived hybrids
Method: as §2

[5] = test system: B16F10 cancer cell hybrids; assay: Transwell chemotaxis assay towards ligand; conditions: ligand 25 ng/ml
Method: as §1

Molecule	migration of fusion hybrids towards ligand [1]	migration of unfused MC38 cells towards ligand [2]	effect on MC38 proliferation / growth [3]	effect on hybrid proliferation / growth [4]	migration of B16F10 hybrids towards ligand [5]
Sdf1: strongly chemotactic lymphocyte cytokine, ligand of Cxcr4	migrated towards	incapable of responding			
Tnf-α			profound inhibitory effect	resistant	
Hgf: Hepatic growth factor, cytokine tested for growth effect on MC38 and hybrid cells (protein, UniProt Q08048 33-495; Q08048 496-728, looked up) Hepatocyte growth factor …: QKKRRNTLHEFKKSAKTTLTKEDPLLKIKTKKVNSADECANRCIRNRGFTFTCKAFVFDKSRKRCYWYPFNSMSSGVKKGFGHEFDLYENKDYIRNCIIGKGGSYKGTVSITKSGIKCQPWNSMIPHEHSFLPSSYRGKDLQENYCRNPRGEEGGPWCFTSNPEVRYEVCDIPQCSEVECMTCNGESYRGPMDHTESGKTCQRWDQQTPHRHKFLPERYPDKGFDDNYCRNPDGKPRPWCYTLDPDTPWEYCAIKTCAHSAVNETDVPMETTECIQGQGEGYRGTSNTIWNGIPCQRWDSQYPHKHDITPENFKCKDLRENYCRNPDGAESPWCFTTDPNIRVGYCSQIPKCDVSSGQDCYRGNGKNYMGNLSKTRSGLTCSMWDKNMEDLHRHIFWEPDASKLNKNYCRNPDDDAHGPWCYTGNPLIPWDYCPISRCEGDTTPTIVNLDHPVISCAKTKQLR Hepatocyte growth factor beta …: VVNGIPTQTTVGWMVSLKYRNKHICGGSLIKESWVLTARQCFPARNKDLKDYEAWLGIHDVHERGEEKRKQILNISQLVYGPEGSDLVLLKLARPAILDNFVSTIDLPSYGCTIPEKTTCSIYGWGYTGLINADGLLRVAHLYIMGNEKCSQHHQGKVTLNESELCAGAEKIGSGPCEGDYGGPLICEQHKMRMVLGVIVPGRGCAIPNRPGIFVRVAYYAKWIHKVILTYKL			moderate, dose-dependent growth-suppressing effect		
Csf1: ligand of colony stimulating factor 1 receptor, used as chemoattractant (protein, UniProt P07141 33-552, looked up) Macrophage colony-stimulating …: KEVSEHCSHMIGNGHLKVLQQLIDSQMETSCQIAFEFVDQEQLDDPVCYLKKAFFLVQDIIDETMRFKDNTPNANATERLQELSNNLNSCFTKDYEEQNKACVRTFHETPLQLLEKIKNFFNETKNLLEKDWNIFTKNCNNSFAKCSSRDVVTKPDCNCLYPKATPSSDPASASPHQPPAPSMAPLAGLAWDDSQRTEGSSLLPSELPLRIEDPGSAKQRPPRSTCQTLESTEQPNHGDRLTEDSQPHPSAGGPVPGVEDILESSLGTNWVLEEASGEASEGFLTQEAKFSPSTPVGGSIQAETDRPRALSASPFPKSTEDQKPVDITDRPLTEVNPMRPIGQTQNNTPEKTDGTSTLREDHQEPGSPHIATPNPQRVSNSATPVAQLLLPKSHSWGIVLPLGELEGKRSTRDRRSPAELEGGSASEGAARPVARFNSIPLTDTGHVEQHEGSSDPQIPESVFHLLVPGIILVLLTVGGLLFYKWKWRSHRDPQTLDSSVGRPEDSSLTQDEDRQVELPV	migrated towards	incapable of responding			low response
